Literature values, collected in article PMC8536644, “Enigmatic mechanism of the N-vinylpyrrolidone hepatocarcinogenicity in the rat” (Archives of Toxicology, 2021).

Test system: CYP2B
Conditions: ref Waxmann [1999]; Lubet et al. [1985]; Tompkins and Wallac [2007]; cited from earlier work

**Q.** With CCC1(c2ccccc2)C(=O)NC(=O)NC1=O [phenobarbital] as the compound, how does the “Increase of hepatic PROD activities” value read?
**A.** The value was 50 to 140 fold.
